Data on one compound can be found in US8323909B2, “Methods of identifying small molecules for renewals, survival and migration of cardiac progenitors” (The Regents of the University of California, priority 2006, dated 2012).

The test system of the test is isl1+ cardiac progenitor cells. Nature of the test: Chemical compound screen with β-gal tagged isl1+ cardiac progenitors (luciferase/β-gal activity, β-gal+ cell count, isl1 immunohistochemistry). It counts as cell-based, mouse. The text has this:
The inventors developed an assay based on the β-gal tagged cardiac progenitors to identify small molecules and defined factors that can trigger the renewal of the cardiac progenitors (FIGS. 4A and 4B). The isl1-mER-Cre-mER knock-in mice were utilized to conditionally mark embryonic and post-natal isl1+ cardiac progenitors. Mice which are double heterozygous for the isl1-mER-Cre-mER and the R26R-indicator allele allow the purification of a relatively homogeneous population of isl1+ cardiac progenitors after amplification on mesenchymal feeder layers.
The β-gal substrate 6-O-β-galactopyranosyl-luciferin allows luciferase-mediated detection of light emission in genetically lacZ labelled cells in a high throughput manner (FIGS. 4A and 4B). 6-O-galactopyranosyl-luciferin is cleaved by (3-gal into D-Luciferin, which is processed by luciferase in an ATP-dependent step into Oxyluciferin and light.
After screening a small molecule library containing over 15,000 compounds, a series of compounds that can trigger the expression of lacZ activity as well as the induction of the isl1 protein in cultured cardiac progenitor preparations was identified.
The screen was based on three independent read-out systems. First, the chemical compound library was screened for luciferase activity, and thereby indirectly for β-gal activity of proliferating cells. Second, β-gar progenitor cells were counted within the mesenchymal feeder layers with and without compound treatment, and third, expression of the transcription factor isl1^+ per progenitor cell was screened in an immunohistochemically based analysis.

Regarding `O=C1Nc2cc(Br)ccc2/C1=C1/Nc2ccccc2/C1=N\O` [BIO, 6-bromoindirubin-3′-oxime], the “effect on the proliferation capacity of isl1+ cardiac progenitor cells” value is given as 50-80 fold. In addition, the β-galactosidase activity result (cardiac progenitor cells from isl1-mER-Cre-mER/R26R mice, after 4 days in culture, luciferase assay) is reported as “significant increase”. Further, where the note is “cells counted within mesenchymal feeder layers with and without compound treatment”, the “β-gal+ progenitor cell number” value is reported as “significant increase”. Further, the “proliferation of isl1+ precursor cells” value (result in words (FIG. 5 legend)) was “significant increase”.
